Measurements published in patent US9895390B2, “Methods and assays for combination treatment of cancer” (CHILDREN'S MEDICAL CENTER CORPORATION, priority 2012, dated 2018).
Where “and” joins values, the source holds several entries; their conditions need not be identical. Equal entries are not always repeated. Entries after “also recorded” stand apart in the source; their conditions may differ.

Tests used:
HCC15 = assay: Etoposide dose response curves with or without DZNep, stably transduced lines; assay type: cell-based, human; conditions: HCC15 control cells
Description: (§1) Cell lines were dissociated, counted and plated at 5000 cells per well in flat bottom opaque tissue culture treated 96 well plates (CytoOne). Edge wells were filled with PBS. The following day, 2× drug diluted in media was added to each well such that the well then contained 100 ul media with 1× drug concentration. After 4 days, Cell Titer Glo™ (Promega) was added and luminescence was read on a BioTec plate reader to determine relative cell number in each well. Data were averaged for triplicate or quadruplicate technical replicates, normalized to the untreated wells and input into GraphPad Prism software to extrapolate IC50.
as §1, with “concentration at the following doses: etoposide; 0, 0.1, 1, 3, 5, 7, 10, 50, 100, 500 μM, cisplatin; 0, 0.1, 1, 5, 10, 30, 70, 100, 500 μM, or doxorubicin; 0, 0.01, 0.1, 0.5, 1, 3, 5, 7, 10, 50 μM.” for “concentration.”, “CELLTITER-GLO™” for “Cell Titer Glo™”, “replicates and” for “replicates,”, “wells. […]” for “wells and input into GraphPad Prism software to extrapolate IC50.”

H460 = assay: as above; assay type: cell-based, human; conditions: H460 control cells
Description: as §1
as §1, with “concentration at the following doses: etoposide; 0, 0.1, 1, 3, 5, 7, 10, 50, 100, 500 μM, cisplatin; 0, 0.1, 1, 5, 10, 30, 70, 100, 500 μM, or doxorubicin; 0, 0.01, 0.1, 0.5, 1, 3, 5, 7, 10, 50 μM.” for “concentration.”, “CELLTITER-GLO™” for “Cell Titer Glo™”, “replicates and” for “replicates,”, “wells. […]” for “wells and input into GraphPad Prism software to extrapolate IC50.”

human NSCLC lines = assay: Cytotox assays: chemotherapy dose response curves with or without EZH2 inhibitor, 4 days; assay type: cell-based
Description: as §1
Cell lines were dissociated, counted and plated at 5000 cells per well in flat bottom opaque tissue culture treated 96 well plates (CytoOne). Edge wells were filled with PBS. The following day, 2× drug diluted in media was added to each well such that the well then contained 100 ul media with 1× drug concentration at the following doses: etoposide; 0, 0.1, 1, 3, 5, 7, 10, 50, 100, 500 μM, cisplatin; 0, 0.1, 1, 5, 10, 30, 70, 100, 500 μM, or doxorubicin; 0, 0.01, 0.1, 0.5, 1, 3, 5, 7, 10, 50 μM. […] Data were averaged for triplicate or quadruplicate technical replicates and normalized to the untreated wells. Results from three or four independent biological replicate experiments were input into […] PRISM™ software to extrapolate IC50 and s.e.m. of IC50 for a given cell line.

H157 xenografts = assay: Xenograft tumor growth in nude mice; assay type: in vivo, Foxn1nu (nude) mice
Description: (§2) To determine if the protected and sensitized phenotypes could be observed in vivo, cells were transplanted subcutaneously, tumors allowed to initiate, and mice treated with etoposide and DZNep. 12 days after cell injection, tumor bearing mice were randomized into groups that received either etoposide (20 mg/kg/day) or placebo (corn oil) daily for five days. The cohorts were further subdivided into groups that also received DZNep, either 2 mg/kg/day twice during the first week (dosing scheme A), or 1 mg/kg/day twice during the first two weeks (dosing scheme B).
(§3) Cell lines were dissociated into single cells, counted and resuspended at 1×10^6 cells per 250 μL of 1:1 media/matrigel (BD). 8- to 16-week-old Foxn1nu (nude) mice (Harlan) were injected subcutaneously with 1×10^6 cells in four spots on flanks. Chemo and DZNep were administered from day 12 to day 17 post injections, Etoposide: 20 mg/kg/day i.p. in corn oil once per day for 5 consecutive days, and DZNep 2 mg/kg/day i.p. in corn oil twice per week for 1 week (dosing scheme A) OR 1 mg/kg/day i.p. in corn oil twice per week for 2 weeks (dosing scheme B). Tumor growth was measured every other day by caliper.
as §3, with “2-4” for “four”, “Etoposide” for “Chemo”, “injections; etoposide:” for “injections, Etoposide:”, “week, or” for “week (dosing scheme A) OR”, “weeks.” for “weeks (dosing scheme B).”, “caliper. All mouse experiments were approved by the CHB Animal Care and Use Committee and by the Dana-Farber Cancer Institute Institutional Animal Care and Use Committee, both accredited by AAALAC, and were performed in accordance with relevant institutional and national guidelines and regulations.” for “caliper.”

H23 xenografts = assay: Xenograft tumor growth in nude mice; assay type: in vivo, Foxn1nu (nude) mice; conditions: H23, DZNep 1 mg/kg/day twice per week for 2 weeks (dosing scheme B)
Description: as §2, §3
as §3, with “2-4” for “four”, “Etoposide” for “Chemo”, “injections; etoposide:” for “injections, Etoposide:”, “week, or” for “week (dosing scheme A) OR”, “weeks.” for “weeks (dosing scheme B).”, “caliper. All mouse experiments were approved by the CHB Animal Care and Use Committee and by the Dana-Farber Cancer Institute Institutional Animal Care and Use Committee, both accredited by AAALAC, and were performed in accordance with relevant institutional and national guidelines and regulations.” for “caliper.”

[1] = tested on: p57, p21, p27, Brg1 and EGFR expression; assay: Quantitative RT-PCR in treated cell lines; assay type: cell-based, human; conditions: Sw1573, Calu6, H23, H460 and PC9; 1 μM DZNep, 4 days
Description: RNA from treated cell lines was extracted from using Trizol. Equal amounts of RNA were incubated with DNAse I before cDNA was made using the SuperScript III™ kit (Invitrogen). Relative gene expression was assayed with Sybr green on the StepOnePlus™ Real-Time PCR System (Applied Biosystems). Relative expression was calculated by Gene of Interest (Ctreference-Ctexprimental)-CYPA(Ctreference-Ctexperimental) and graphed on the log 2 scale. For all experiments, the reference sample was a matched untreated or control transduced cell line. Primer sequences:
RNA from treated cell lines was extracted using Absolutely RNA™ kits (Agilent) and cDNA was made using the SuperScript III™ kit (Invitrogen). Relative gene expression was assayed with Sybr green on the StepOnePlus™ Real-Time PCR System (Applied Biosystems). Relative expression was calculated by Gene of Interest(Ctreference-Ctexperimental)-CYPA(Ctreference-Cteexperimental) and graphed on the log 2 scale. For all experiments, the reference sample was a matched untreated or control transduced cell line.

Nc1nccc2c1ncn2[C@@H]1C=C(CO)[C@@H](O)[C@H]1O [DZNep, 3-Deazaneplanocin A]
decrease in etoposide IC50 in response to DZNep (HCC15): 2 fold
increase in etoposide IC50 in response to DZNep (H460): 2 fold
cell lines more sensitive to etoposide in the presence of DZNep (human NSCLC lines; 1 μM DZNep, 4 days, panel of 29 (Example 1) or 26 (Example 2) lines): 16 of the 29 and 14 of the 26
sensitivity to etoposide in the presence of DZNep, protected lines (human NSCLC lines; H23, H460 and H441, 1 μM DZNep, 4 days): less sensitive
sensitivity to etoposide in the presence of DZNep, sensitized lines (human NSCLC lines; H157, HCC15, PC9, H157, A549, PC9, 1 μM DZNep, 4 days): more sensitive
pattern of sensitized and protected cells with cisplatin combined with DZNep (human NSCLC lines; cis-platinum combined with DZNep): not observed
efficacy of dosing scheme B (H157 xenografts; H157, DZNep 1 mg/kg/day twice per week for 2 weeks): not as effective
tumor burden, DZNep alone vs untreated/vehicle (H157 xenografts; H157 xenografts, DZNep 2 mg/kg/day twice in first week (dosing scheme A)): effective at reducing tumor burden; also recorded: weakly effective
sensitivity of xenografts to DZNep as a single therapy (H23 xenografts): very sensitive; also recorded: sensitive
BRG1 transcript [1]: reproducibly increased
